Tests used:
[1] = system: human T cells; experiment: Ibrutinib alone on ex vivo T-cell activation (CD25); type: cell-based
Procedure: (§1) Normal human T cells (100,000/well) were treated with increasing concentrations of ibrutinib (0 nM, 25 nM, 250 nM, 750 nM or 2500 nM) for 0, 24, 48, and 72 hours under ex vivo T-cell proliferation/activation conditions, which contained T-cell activator anti-CD3/CD28 Dynabeads and rhIL-2.
The percentages of CD25 in CD4+ and CD8+ T cell subsets were determined by flow cytometry. The effect of ibrutinib treatment alone on upregulation of CD25, a T-cell activation marker, was also evaluated on T cells activated with anti-CD3/CD28 and rhIL2.

[2] = system: human T cells; experiment: Ibrutinib alone on ex vivo T-cell proliferation (CellTiter-Glo); type: cell-based; details: 25, 250, 750 or 2500 nM, up to 3 days
Procedure: as §1
Cell viability was determined using the CellTiter-Glo® Luminescent Viability Assay with relative light units (RLU) proportional to the number of viable cells.

[3] = system: Raji/GF cells; experiment: DART-A-mediated redirected killing of Raji/GF cells using ibrutinib-pretreated T cells (luciferase); type: cell-based, human; details: T cells pretreated with 2500 nM ibrutinib
Procedure: (§2) Suspension-cultured CD19-positive Raji/GF cells were harvested and washed with 1×DPBS or assay media containing RPMI 1640 without phenol red, 10% FBS, and pen/strep. Cell concentration and viability were measured by Trypan Blue dye exclusion using a Beckman Coulter Vi-Cell counter. The target cells were diluted in assay media to a cell density of 2×10^5 cells/mL. 50 μL of the diluted cell suspension was added to a 96-well, flat-bottom NUNCLON DELTA white plate (Thermo Scientific Cat #136101). For each treatment, duplicate wells were included. Human T cells, following treatment with ibrutinib for various times as described above, were collected and washed 3 times with assay media. After the final wash, the T cells were counted and resuspended in the assay medium at a cell density of 1×10^6 cells/mL and 100 μL were added to each well. […] The plates were incubated at room temperature in the dark for 10 minutes and then luciferase intensity was measured using a Victor2 Multilabel plate reader (Perkin Elmer #1420-014) with luciferase relative light unit (RLU) as the read-out. […] The percent cytotoxicity values were calculated as described below and concentration-response curves were generated using GraphPad Prism 6 software with curve fitting by the sigmoidal dose-response function.
Specific cell lysis was calculated from RLU data using the following formula: […]

[4] = once daily oral dose of 560 mg, cited from earlier work
[5] = system: human CD4+ and CD8+ T cells; experiment: DART-A-mediated T cell activation (CD25) with Raji/GF cells and concomitant ibrutinib; type: cell-based
Procedure: Assays were conducted as described above, except that: 1) fresh human T cells were substituted for ibrutinib pretreated human T cells; 2) 50 μL of T cells containing 200,000 cells were added into each well; and 3) 50 μL of ibrutinib solution at 10, 3, 1, 0.2, or 0 μM were added into the assay plates. […] The ibrutinib solutions were prepared by diluting a 1000 μM stock solution in 100% DMSO in assay medium with DMSO concentration being diluted to 1% DMSO. The final ibrutinib concentrations on the plate were 2500, 750, 250, 50, or 0 nM and the final DMSO concentration was 0.25%. Plates were incubated and processed as described previously.
However, the presence of ibrutinib inhibited DART-A-mediated CD25 upregulation in a concentration-dependent manner.

[6] = system: human T cells; experiment: Ibrutinib alone on ex vivo T-cell cytokine production (ELISA); type: cell-based
Procedure: as §1
Production of IFN-γ, TNF-α, and IL-10 was measured by ELISA. […] Because of the minimal IL-6 cytokine production under the ex vivo T-cell proliferation/activation conditions tested, evaluation of ibrutinib's effect on IL-6 induction was not feasible.

[7] = system: human PBMCs; experiment: T-cell activation and cytokine release with DART-A-mediated B-cell depletion in human PBMCs in the presence of ibrutinib; type: cell-based
Source text: (§3) An autologous B-cell depletion assay with human PBMCs, which comprise both target cells (CD19+ B cells) and effector cells (CD3+ T cells) in a physiologically relevant cellular context, was utilized to evaluate the effect of ibrutinib on DART-A-mediated primary B-cell depletion, concomitant T-cell activation, and cytokine release.

[8] = system: primary B-cell (CD20+); experiment: DART-A-mediated autologous B-cell depletion with human PBMCs in the presence of ibrutinib; type: cell-based
Source text: as §3

[9] = system: Raji/GF target cells; experiment: DART-A-mediated redirected killing of Raji/GF cells with concomitant ibrutinib; type: cell-based, human
Procedure: as §2, with “function. […]” for “function.”

[10] = system: target cell; details: reported; cited from earlier work
[11] = molecular target: T1, CD19 (Homo sapiens, UniProt P15391); details: reported; read-out: affinity for CD19; cited from earlier work
T1 sequence (P15391 20-556): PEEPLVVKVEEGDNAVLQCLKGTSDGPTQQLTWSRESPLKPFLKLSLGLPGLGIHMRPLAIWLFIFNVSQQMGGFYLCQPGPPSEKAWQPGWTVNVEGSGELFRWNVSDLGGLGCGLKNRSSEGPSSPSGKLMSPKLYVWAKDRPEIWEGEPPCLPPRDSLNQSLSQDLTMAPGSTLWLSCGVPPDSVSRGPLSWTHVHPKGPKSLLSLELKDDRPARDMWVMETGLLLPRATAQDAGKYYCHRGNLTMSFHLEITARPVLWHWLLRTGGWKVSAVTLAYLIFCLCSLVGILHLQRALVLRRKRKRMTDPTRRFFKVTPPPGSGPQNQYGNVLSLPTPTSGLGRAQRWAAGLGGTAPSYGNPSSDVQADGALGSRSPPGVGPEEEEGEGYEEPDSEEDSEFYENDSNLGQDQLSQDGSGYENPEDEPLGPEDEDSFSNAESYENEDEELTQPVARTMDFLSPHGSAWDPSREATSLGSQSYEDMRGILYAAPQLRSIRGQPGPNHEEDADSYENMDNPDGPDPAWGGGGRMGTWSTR

[12] = molecular target: CD3 (Homo sapiens, UniProt P07766); details: reported; read-out: affinity for CD3; cited from earlier work
Sequence of CD3 (P07766 23-207): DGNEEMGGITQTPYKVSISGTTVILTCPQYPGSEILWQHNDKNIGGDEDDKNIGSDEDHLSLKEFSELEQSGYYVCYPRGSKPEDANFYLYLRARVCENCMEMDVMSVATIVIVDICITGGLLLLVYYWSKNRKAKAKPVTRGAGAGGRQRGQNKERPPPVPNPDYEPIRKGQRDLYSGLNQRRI
Sequence of CD3 (P04234 22-171 partner): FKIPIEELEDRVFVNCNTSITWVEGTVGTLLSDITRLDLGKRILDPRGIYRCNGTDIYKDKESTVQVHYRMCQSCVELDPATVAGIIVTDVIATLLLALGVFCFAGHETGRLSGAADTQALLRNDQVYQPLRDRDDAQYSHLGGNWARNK
Sequence of CD3 (P09693 23-182 partner): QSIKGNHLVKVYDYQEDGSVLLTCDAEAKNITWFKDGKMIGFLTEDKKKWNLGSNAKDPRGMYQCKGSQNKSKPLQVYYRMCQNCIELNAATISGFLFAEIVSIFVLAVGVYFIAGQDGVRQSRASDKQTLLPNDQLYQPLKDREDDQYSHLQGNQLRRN

[13] = system: indolent lymphomas; details: retreatment with single agent; cited from earlier work

Molecule: C=CC(=O)N1CCC[C@@H](n2nc(-c3ccc(Oc4ccccc4)cc3)c3c(N)ncnc32)C1 [ibrutinib, 1-[(3R)-3-[4-Amino-3-(4-phenoxyphenyl)-1H-pyrazolo[3,4-d]pyrimidin-1-yl]piperidin-1-yl]prop-2-en-1-one, reference compound]
- impact on CD25+ upregulation ([1]; ibrutinib 750 nM): some modest impact
- reduction in the number of CD4+/CD25+ T cells ([1]; ibrutinib 2500 nM, 24 hour): ~60%
- reduction in the number of CD8+/CD25+ T cells ([1]; ibrutinib 2500 nM, 24 hour): ~95%
- inhibition of CD25 upregulation ([1]; ibrutinib ≦250 nM): minimal or no inhibition
- ability of T cells to respond to anti-CD3/CD28 and rhIL-2 stimulation (cell numbers) [2]: had no impact
- increase in DART-A EC50 value [3]: ~3 fold
- minimum (Ctrough) serum concentration [4]: 25 to 50 nM
- Cmax ([4]; read-out: maximum (Cmax) serum concentration): ~250 nM
- Emax at 0.75 µM ([5]; ibrutinib 750 nM, read-out: inhibition in the maximal levels (Emax) of T-cell activation): ≤ 36%
- Emax at 2.5 µM ([5]; ibrutinib 2500 nM, read-out: inhibition in the maximal levels (Emax) of T-cell activation): ≤ 63%
- Emax ([5]; ibrutinib ≦250 nm, vs untreated group, read-out: inhibition in the maximal levels (Emax) of T cell activation (% CD25)): < 20%
- IFN-γ ([6]; 2500 nM, all time points): a small reduction in IFN-γ
- IL-10 and TNF-α production ([6]; 2500 nM, from 24 hours): decreased IL-10 and TNF-α production
- impact on TNF-α, IL-10 and IFN-γ release ([6]; up to 750 nM, up to 72 hours): no or minimal impact
- inhibition of concomitant T-cell activation and cytokine production ([7]; ibrutinib 250 nM): partial inhibition
- inhibition of concomitant T-cell activation and cytokine production ([7]; ibrutinib 2500 nM): nearly complete inhibition
- inhibition at 0.75 µM ([8]; Homo sapiens, B-cell, ibrutinib 750 nM): 8%
- inhibition at 2.5 µM ([8]; Homo sapiens, B-cell, ibrutinib 2500 nM): 60%
- inhibition of DART-A-mediated primary B-cell (CD20+) depletion ([8]; ibrutinib ≦250 nM): minimal to no inhibition
- increase of DART-A EC50 values ([9]; ibrutinib 750 nM, both time points): 8-9 fold
- inhibitory effect on DART-A-mediated redirected T-cell killing ([9]; ibrutinib ≦250 nM): no or minimal inhibitory effect

Molecule: Blinatumomab: bi-specific scFv-CD19×CD3 BiTE
- EC50 for target cell lysis in vitro [10]: 0.01 to 0.1 ng/mL
- Kd [11]: ~1 nM
- Kd [12]: ~100 nM

Molecule: rituximab: anti-CD20 monoclonal antibody
- response rate [13]: 40%

Source: patent publication US20170157251A1, “Bi-Specific Monovalent Diabodies That are Capable of Binding CD19 and CD3, and Uses Thereof” (MacroGenics, Inc., priority 2015, published 2017)
